Assay results reported in patent US20120003310A1 (priority 2009, published 2012).

Legend:
[1] = per reference; cited from earlier work
[2] = Rasagiline citrate salt formation in solvents: extractable free rasagiline base (toluene extraction, TLC), pH, NMR equivalents; details: for pH (after extraction of R-PAI): value in parentheses; for Extracted R-PAI (%) / Extracted R-PAI (amount): free rasagiline base extracted or filtered from the citrate salt solution, solvent and mole proportions per example
Source text: (§1) The combined toluenic extract was evaporated to dryness.
as §1

[3] = per reference; cited from earlier work; remark: listed apart in the source
[4] = citrate salt of the drug substance, per reference; cited from earlier work
[5] = Hygroscopicity: citrate salts exposed to atmospheric air in open dishes at ambient temperature; format: physicochemical; details: for Changes on exposure to atmosphere (appearance): open dish, ambient temperature
Source text: (§2) The changes were observed and recorded.

[6] = Appearance of citrate salts stored in closed sealed glass vials in refrigerator at 7±2° C.; format: physicochemical; details: sealed glass vial, refrigerator 7±2° C.
Source text: as §2

[7] = Aqueous solubility of rasagiline base and rasagiline salts
[8] = such as hexane, toluene and ethylacetate
[9] = AZILECT Product Label, May 2006; cited from earlier work
[10] = time of exposure 1:50-2:00 hrs:min

In the case of Phosphate, the Water solubility [1] is given as “>=720 mg/ml”.

In the case of `C#CCN[C@@H]1CCc2ccccc21.O=C(O)CC(O)(CC(=O)O)C(=O)O` [Example 19.14], the “pH (after extraction of R-PAI)” value [2] is reported as 3.49 and the pH ([2]; value outside parentheses, before extraction of R-PAI) is reported as 3.53.

For Tosylate, the Water solubility [1] is given as 60 to 70 mg/mL.

For `C#CCN[C@@H]1CCc2ccccc21` [Mesylate], the “Hygroscopicity by KF” value [3] is listed as “Not hygroscopic”.

In the case of `C[C@@H]1CCCN1CCc1ccc2cc(-n3ncccc3=O)ccc2c1`, the Polynorpb [4] is listed as “Crystalline”.

With `C#CCN[C@@H]1CCc2ccccc21.O=C(O)CC(O)(CC(=O)O)C(=O)O` the “free rasagiline that may be extracted from the aqueous solution of the salt” value [2] was “A few percent” and the “stability of the salt in solvents” value ([2]; aqueous and other solutions (alcohol, MEK, acetone)) was “stable in most solvents”.

In the case of `C#CCN[C@@H]1CCc2ccccc21` [Solid R-PAI (Free Base)], the “Hygroscopicity by KF” value [3] is listed as “Not hygroscopic” and the Water solubility [1] is listed as “low”.

In the case of `Cl` [Chloride], the “Hygroscopicity by KF” value [3] is given as “Not hygroscopic”.

For `O=C(O)CC(O)(CC(=O)O)C(=O)O.c1cnc2cc3c(cc2n1)C1CNCC3C1`, the Polynorpb [4] is listed as “Crystalline”.

In the case of `C#CCN[C@@H]1CCc2ccccc21.O=C(O)CC(O)(CC(=O)O)C(=O)O` [Example 19.13], the “Extracted R-PAI (%)” value [2] is reported as “(48%)” and the “Extracted R-PAI (amount)” value [2] is reported as 2.47 g.

For `C#CCN[C@@H]1CCc2ccccc21.CCS(=O)(=O)O` [Esylate], the Water solubility [1] is listed as “>=300 mg/ml”.

With `C#CCN[C@@H]1CCc2ccccc21.O=C(O)CC(O)(CC(=O)O)C(=O)O` [Example 19.7] the “Extracted R-PAI (%)” value [2] was “(38.2%)” and the “Extracted R-PAI (amount)” value [2] was 3.92 g.

For `N#Cc1ccc2[nH]c(O)c(-c3ccc(CN4CCOCC4)cn3)c2c1`, the Polynorpb [4] is given as “Crystalline”.

For Oxalate, the “Hygroscopicity by KF” value [3] is listed as “Not hygroscopic”.

In the case of `C#CCN[C@@H]1CCc2ccccc21.O=C(O)CC(O)(CC(=O)O)C(=O)O` [Example 19.1], the “Extracted R-PAI (%)” value [2] is reported as 1.75% and the “Extracted R-PAI (amount)” value [2] is reported as 0.06 g.

With `C#CCN[C@@H]1CCc2ccccc21.C#CCN[C@@H]1CCc2ccccc21.O=C(O)CC(O)(CC(=O)O)C(=O)O` [Example 4c] the “Changes on exposure to atmosphere (appearance)” value (“Changes on exposure” for short) ([5]; time of exposure 0:00 hrs:min) was “Powder”, the “Changes on exposure” value ([5]; time of exposure 0:50-1:00 hrs:min) was “Powder” and the “Changes on exposure” value ([5]; time of exposure 0:30 hrs:min) was “Powder”. The “Changes on exposure” value [5, 10] was “Powder”, the “Changes on exposure” value ([5]; time of exposure 5:00 hrs:min) was “Lump powder” and the Appearance ([6]; storage 0 months) was “White powder”. The Appearance ([6]; storage 3 months) was “White powder” and the Appearance ([6]; storage 6 months) was “White powder”.

For `C#CCN[C@@H]1CCc2ccccc21.C#CCN[C@@H]1CCc2ccccc21.O=S(=O)(O)CCS(=O)(=O)O` [Edisilate], the “Hygroscopicity by KF” value [3] is listed as “Not hygroscopic”.

For `C#CCN[C@@H]1CCc2ccccc21.O=C(O)CC(O)(CC(=O)O)C(=O)O` [Example 19.6], the “Extracted R-PAI (%)” value [2] was “(43.3%)” and the “Extracted R-PAI (amount)” value [2] was 4.44 g.

For `Cc1ccc(NC(=O)c2ccc(CN3CCN(C)CC3)cc2)cc1Nc1nccc(-c2cccnc2)n1`, the Polynorpb [4] is listed as “Crystalline”.

In the case of `CN1CCN(c2ccccc2C=C2SCCN(c3ccc(Cl)c(Cl)c3)C2=O)CC1`, the Polynorpb [4] is listed as “Crystalline”.

With rasagiline citrate the “hygroscopicity compared to rasagiline base and other rasagiline salts” value ([5]; Tables 22b and 22c) was “highest hygroscopicity” and the “water solubility compared to rasagiline base and other rasagiline salts” value ([7]; Tables 22b and 22c) was “highest water solubility”.

With `C#CCN[C@@H]1CCc2ccccc21.O=C(O)CC(O)(CC(=O)O)C(=O)O` [Example 19.4] the “Extracted R-PAI (%)” value [2] was “(22%)” and the “Extracted R-PAI (amount)” value [2] was 1.51 g.

In the case of `C#CCN[C@@H]1CCc2ccccc21.O=C(O)CC(O)(CC(=O)O)C(=O)O` [Example 4b], the “Changes on exposure” value ([5]; time of exposure 0:00 hrs:min) is reported as “Powder”, the “Changes on exposure” value [5, 10] is reported as “Semi-solid” and the “Changes on exposure” value ([5]; time of exposure 6:00 hrs:min) is reported as “Syrup”. For the same compound, the “Changes on exposure” value ([5]; time of exposure 7:00 hrs:min) was “Syrup”, the Appearance ([6]; storage 0 months) was “White powder” and the Appearance ([6]; storage 3 months) was “White powder”. For the same compound, the Appearance ([6]; storage 6 months) was “White powder”.

In the case of `Cc1[nH]c(C=C2C(=O)Nc3ccc(F)cc32)c(C)c1C(=O)NCCN1CCCC1`, the Polynorpb [4] is given as “Crystalline”.

For `C[C@@H]1CCN(C(=O)CC#N)C[C@@H]1N(C)c1ncnc2[nH]ccc12`, the Polynorpb [4] is listed as “Crystalline”.

For `C#CCN[C@@H]1CCc2ccccc21` [rasagiline, R(+)-N-propargyl-1-aminoindan], the “solubility in non-polar organic solvents” value [8] is listed as “very soluble”, the “amount dissolving in aqueous reaction solution of citric acid” value [7] is listed as “more than 10 wt %” and the absolute bioavailability [9] is listed as “about 36%”.

For `C#CCN[C@@H]1CCc2ccccc21.C#CCN[C@@H]1CCc2ccccc21.C#CCN[C@@H]1CCc2ccccc21.O=C(O)CC(O)(CC(=O)O)C(=O)O` [Example 4d], the “Changes on exposure” value ([5]; time of exposure 0:00 hrs:min) was “Powder”, the “Changes on exposure” value ([5]; time of exposure 0:30 hrs:min) was “Powder” and the “Changes on exposure” value ([5]; time of exposure 5:00 hrs:min) was “Semi-solid”. The “Changes on exposure” value ([5]; time of exposure 6:00 hrs:min) was “Semi-solid”, the Appearance ([6]; storage 0 months) was “White powder” and the Appearance ([6]; storage 3 months) was “White powder”. The Appearance ([6]; storage 6 months) was “White powder”.

For `O=C(O)CC(O)(CC(=O)O)C(=O)O` [citric acid], the “Hygroscopicity by KF” value [3] is listed as “low”.

With `C#CCN[C@@H]1CCc2ccccc21.O=C(O)CC(O)(CC(=O)O)C(=O)O` [Example 19.17] the “pH (after extraction of R-PAI)” value [2] was “(3.41)”.
